Test results: US20250066425A1, “POLYPEPTIDE AND APPLICATION THEREOF IN PREPARATION OF ANTI-FIBROSIS DRUG” (priority 2022, published 2025)
Residues, ends and D or L forms follow the SMILES beside them.

Experiment: toxic or side effect on mice after injection for several times (serum biochemistry)
Type: in vivo, C57 mice
Procedure: During sampling of the mice with myocardial infarction modeling for 4 weeks and intramyocardial injection of the polypeptide PAFRK29 for 5 times in Example 6, peripheral blood of the mice was collected into an anticoagulant tube and centrifuged at 1,000 g for 10 minutes. Serum of a supernatant was taken, and levels of blood urea nitrogen (BUN), serum alanine aminotransferase (ALT) and serum aspartate aminotransferase (AST) were determined by an automatic biochemical analyzer.

[1] = myocardial infarction mice, 4 weeks, intramyocardial injection 5 times, vs control group

With CC(C)[C@H](NC(=O)[C@@H]1CCCN1C(=O)[C@H](Cc1c[nH]cn1)NC(=O)[C@H](CCCCN)NC(=O)[C@H](Cc1ccc(O)cc1)NC(=O)[C@H](CCC(N)=O)NC(=O)[C@H](CCCNC(=N)N)NC(=O)[C@H](CO)NC(=O)[C@H](Cc1c[nH]cn1)NC(=O)[C@H](Cc1ccccc1)NC(=O)[C@H](Cc1ccc(O)cc1)NC(=O)[C@H](CCC(N)=O)NC(=O)CNC(=O)[C@H](CCC(N)=O)NC(=O)[C@H](Cc1ccccc1)NC(=O)[C@H](CCCNC(=N)N)NC(=O)[C@H](CCCNC(=N)N)NC(=O)[C@H](CCCNC(=N)N)NC(=O)[C@H](CCC(N)=O)NC(=O)[C@H](CCCNC(=N)N)NC(=O)[C@H](CCCNC(=N)N)NC(=O)[C@H](CCCCN)NC(=O)[C@H](CCCCN)NC(=O)[C@@H](N)CCCNC(=N)N)C(=O)NCC(=O)N[C@@H](Cc1ccc(O)cc1)C(=O)N[C@@H](CCC(=O)O)C(=O)NCC(=O)N[C@@H](CCCCN)C(=O)O [PAFRK29] (H-RKKRRQRRRFQGQYFHSRQYKHPVGYEGK-OH; N-terminus and C-terminus assumed) the “toxic or side effect on the mice” value (at an effective anti-fibrosis dose) was “no obvious toxic or side effect”, the “level of blood urea nitrogen (BUN)” value [1] was “no obvious differences” and the “level of serum alanine aminotransferase (ALT)” value [1] was “no obvious differences”. For the same molecule, the “level of serum aspartate aminotransferase (AST)” value [1] was “no obvious differences”.
